“Also recorded” adds a separate entry of the source.
What was measured:
[1] = system: Staphylococcus aureus strain SH1000 grown in biofilms; experiment: Calgary biofilm device, CFU and crystal violet; assay type: cell-based; details: hydrochloride
Protocol: The bactericidal activity of tomatidine and Compound 14 in combination with gentamicin against Staphylococcus aureus was evaluated against this bacterium grown in a biofilm. Biofilms confer to bacteria protection from host defenses as well as tolerance to some antibiotics that target active and dividing cells. In addition, biofilms also provide protection against hydrodynamic shear forces, and biofilm infections are generally difficult to eradicate even in hosts with intact immune system (Costerton et al, 1999; Davies 2003).
Staphylococcus aureus strain SH1000 of the normal phenotype (i.e., non-SCV) was used for its high ability to produce biofilms. The Calgary biofilm device (96-well plates with peg lids) was used to grow S. aureus in biofilms (Ceri et al, 1999) and to test the bactericidal activity of compounds (Moskowitz et al, 2004). Briefly, S. aureus SH1000 was grown in the Calgary biofilm device for 24 h at 35° C. until the biofilm forms on the pegs. The pegs were then washed, the medium was removed and the peg lids were dipped in fresh medium containing various amounts of test compounds. […] Replicate experiments were performed in order to quantify the residual amount of biofilm on pegs by crystal violet staining and spectrophotometry (absorbance [OD] at 562 nm).

[2] = system: MRSA COL; experiment: MIC by microdilution, alone or in combination, MRSA COL; assay type: cell-based, Staphylococcus aureus; details: agent used alone
Protocol: (§1) Method. The minimal inhibitory concentrations (MICs), (i.e. lowest concentration of an antimicrobial that will inhibit the visible growth of a microorganism after incubation), of test compounds were determined against the normal or SCV strains of bacterial species from the Firmicutes phylum. Briefly, MICs were determined using the microdilution method in 96-well plates (Clinical and Laboratory Standards Institute (CLSI), 2011). Bacteria were inoculated at ˜10^5-10^6 CFU/mL and incubated at 35° C. for 20 h (normal strains) or 48 h (SCVs) in brain heart infusion (BHI) broth in order to allow SCVs to reach maximal growth as previously described (Mitchell et al., 2012). Then OD595 nm was read on a microplate reader. […] In this example the range of compound concentrations tested was 0.03 to 64 μg/ml using doubling increments. Strain Staphylococcus aureus NewbouldΔhemB (hemB) was also used in the experiments and is a laboratory-derived stable SCV created by the insertion of the macrolide resistance gene ermA in the hemB gene of this strain to create the SCV phenotype (defective electron transport chain and respiratory deficiency) through inactivation of hemin biosynthesis (Brouillette et al., 2004).
In the present Example the range of compound concentrations tested, using doubling increments, was 0.03 to 64 μg/ml for Compound 14 and up to 1024 μg/ml for gentamicin (GEN), kanamycin (KAN) and cefalexin (CEF) when these compounds were used alone. Compound 14 (Cpd 14) was used at a fixed concentration of 4 μg/ml when added to other antibiotics. The combination of CEF and KAN was used in a 3:2 ratio and doubling increments were used to test the antibacterial activity against MRSA in the absence or presence of Compound 14.

[3] = system: S. aureus SCV strain hemB; experiment: Murine lung infection (pneumonia) model; assay type: in vivo, mouse; details: mice; intratracheal, 4 h post-infection; lungs 24 h post-infection; hydrochloride
Protocol: Compound efficacy in a lung infection (pneumonia) model was evaluated as follow (Ragle et al, 2010; Mitchell et al, 2013): Mice (36) were challenged with an intra-tracheal injection of S. aureus SCV strain hemB (10^7 CFU) (10^7 CFU) (normal S. aureus could also have been used, mixed or not with P. aeruginosa for a co-infection). […] More particularly, 11 mice were untreated (Unrteated); 4 mice were treated with 10 μg of tomatidine (TO (10)); 4 mice were treated with 100 μg of tomatidine (TO (100)); 3 mice were treated with 10 μg of compound 14 (Compound 14 (10)); 8 mice were treated with 100 μg of compound 14 (Compound 14 (100)); and 6 mice were treated with 200 μg of compound 14 (Compound 14 (200)). Mice were euthanized 24 h post-infection. The lungs were recovered, homogenized, and bacterial CFU per g of tissue were determined by plating appropriate dilutions on Brain Hearth Infusion agar media (other media such as for example, mannitol salt agar for S. aureus or cetrimide plates for P. aeruginosa could be used).
Each dot represents the CFU per g of tissue for one mouse. The boxes represent the CFU data distribution, the first quartile, the median and the third quartile. Statistical differences (P<0.001) between CFU recovered from treated and untreated animals are shown by asterisks (non-parametric Kruskal-Wallis ANOVA with Dunn's post test).

[4] = system: S. aureus hemB (SaR1); experiment: MIC against tomatidine-resistant SCV mutant SaR1; assay type: cell-based, Staphylococcus aureus
Protocol: At each passage, using a microdilution method in 96-well microplates, S. aureus hemB was inoculated at ˜10^5-10^6 CFU/ml and incubated at 35° C. for 48 h. The range of tomatidine concentrations tested was 0.03 to 64 μg/ml using doubling increments. The concentration of gentamicin was fixed at 4 μg/mL when it was used in combination with tomatidine. At each passage, the minimal inhibitory concentrations (MICs) (i.e. lowest concentration of an antimicrobial that inhibits the visible growth of bacteria), of tomatidine was determined. The bacteria used as inoculum for the next passage were from the well preceeding the well showing the MIC (i.e. the well containing half the MIC). At each passage, the population of bacteria serving as the inoculum for the next passage was spread on BHI agar plates and three isolated colonies were collected and frozen until used for whole-genome sequencing.

[5] = system: Listeria monocytogenes (strain ATCC 13932); experiment: Time-kill experiments, Listeria monocytogenes; assay type: cell-based
Protocol: Time-kill experiments were performed in order to determine whether the effect of test compounds or the combination with an aminoglycoside on Listeria monocytogenes (strain ATCC 13932) is bacteriostatic (prevents growth) or bactericidal (kills cells).
At several time points during growth at 35° C. (225 RPM), bacteria were sampled, serially diluted and plated on Brain Hearth Infusion agar (BHIA) for colony-forming unit (CFU) determinations (i.e., viable bacterial counts). Plates were incubated for 24 h at 35° C. It represents the results of three independent experiments.

[6] = system: Staphylococcus aureus ATCC 29213; experiment: MIC by microdilution, compound alone or in combination with an aminoglycoside; assay type: cell-based
Protocol: as §1
The various antibacterial activities of the test compounds against Staphylococcus aureus ATCC 29213, alone or in combination with gentamicin, and alone against the SCV strain hemB are reported in Table 1.

3-(N-aminoethyl)-aminotomatidine hydrochloride [Compound 14]
killing of S. aureus in biofilms (Log 10 CFU/peg) ([1]; alone or in combination with gentamicin, 24 h): efficiently kills; also recorded: bactericidal
biofilm disrupting activity (residual OD562 nm) ([1]; used alone, Compound 14 at 4 μg/ml, TO at 8 μg/ml): superior biofilm disrupting activity; also recorded: can also disrupt biofilm formation
MIC [2]: 16 µg/mL
solubility in DMSO: 26 mg/mL
bacterial load in lungs (CFU per g of tissue) [3]: significantly reduce the bacterial load; also recorded: superior to tomatidine hydrochloride salt
Fold increase in resistance (MIC for mutant / MIC for NewbouldΔhemB) ([4]; mutant SaR1): 16 fold
MIC ([4]; tomatidine-resistant mutant SaR1): 8 µg/mL
effect in time-kill in combination with gentamicin ([5]; 8 μg/ml with 2 μg/ml gentamicin): important bactericidal synergy
effect on growth in time-kill (CFU) ([5]; used alone at 8 μg/ml): reduces the growth
potentiaton fold with gentamicin ([6]; MIC gentamicin alone / MIC gentamicin with compound at 4 μg/mL): 4-8 x
potentiation / synergy with aminoglycoside (gentamicin) in words ([6]; S. aureus ATCC 29213): retain the ability to potentiate
activity vs ATCC29213 in words ([6]; compound tested alone): Active
MIC vs ATCC29213 ([6]; compound tested alone, hydrochloride): 8 to 16 µg/mL
potentiation activity with gentamicin in words ([6]; compound used at 4 μg/mL): Moderate-high
Combination MIC vs ATCC29213 (MIC of gentamicin in combination with the compound) ([6]; compound used at 4 μg/mL, MIC of gentamicin alone 0.5 μg/mL): 0.06-0.12
